Source: patent US6589977B1, “Pyrrole derivatives and cell death inhibitors” (Sagami Chemical Research Center, priority 1999, dated 2003)

Assays:
[1] = tested on: Porcine ovarian granulosa cells (POGC); test: Inhibition of SNP-induced apoptosis of porcine ovarian granulosa cells; format: cell-based; settings: SNP 0.5 mM; cells observed after 18 hours
Description: (§1) Porcine ovaries were washed with PBS buffer, and Porcine ovarian granulosa cells (POGC) were collected by aspiration from follicles with a syringe. Cell fraction was recovered as a precipitate by centrifugation of the suspension. The operation of suspending the cell fraction into PBS buffer and subjecting the resulting suspension to centrifugation was repeated three times to wash the cells. The POGC obtained as a precipitate were suspended again into a culture medium (DMEM containing 10% fetal bovine serum) and cell clumps were disrupted by pipetting. The cell suspension was passed through a mesh to remove contaminating tissue fragments, and then pipetted in 24-well plates for cell culture. The cell suspension was cultured for 2 days in a CO2 incubator according to a conventional procedure (37° C., 5% CO2). Then, the medium was refreshed to remove floating cells and the cultivation was continued further 2 to 3 days until the cells reached subconfluency (0.7 to 2×10^5 cell/well). After the attaching cells were washed with serum-free medium, they were cultured in a serum-free DMEM (containing 5 μg/mL of transferrin, and 40 ng/mL of hydrocortisone, 4 mg/mL of bovine serum albumin (BSA), 100 nM androstendione) and it was possible to continue to culture cells with relatively immature differentiation. […] The cell death was also confirmed by MTT assay. Then, various concentrations of the test compounds were added to the present culture system and the cells were observed after 18 hours.

undifferentiated POGC = test: Inhibition of hydrogen peroxide-induced cell death of undifferentiated POGC; format: cell-based, Porcine; settings: compound 0.3 μM added prior to hydrogen peroxide (100 μM); observation after 18 hour
Description: as §1, with “Then, various concentrations of the test compounds were added to the present culture system and the cells were observed after 18 hours.” left out

erythrocytes = test: Inhibition of hydrogen peroxide-induced hemolysis of erythrocytes; format: cell-based, Human; settings: compound 10 μM added prior to hydrogen peroxide (300 μM); after 24 hours
Experimental: Human blood was collected and precipitated by a centrifugation (1000 rpm, 5 min) and the precipitate containing erythrocytes was washed three times with PBS and resuspended (about 5×10^8 cells/ml) with DMEM containing 10% fetal bovine serum. Cell suspensions were dispensed into a 48-well plate to become subconfluent (about 5×10^5 cells/0.5 ml/well). When hydrogen peroxide (300 μM) was added and cultivation continued for 24 hours, more than 95% of erythrocytes underwent hemolysis and become dark and ghost-like on an observation under a light microscopy.

cerebellar granule cells [2] = test: Inhibition of hydrogen peroxide-induced death of cerebellar granule cells; format: cell-based, rats; settings: compound 10 μM added prior to hydrogen peroxide (10 μM); after 12 hours
Experimental: (§2) According to a known method (A Dissection and Tissue Culture Manual of the Nervous System, p. 211, 1989, Alan R, Liss, Inc.), cerebellar granule cells were isolated from the cerebellum of 7 days old rats and cultured. Namely, after conducting isolation procedures described in the above literature, the resulting cells were resuspended in DMEM containing 10% fetal bovine serum, 25 mM KCl and 2 mM glutamine, and seeded in poly-lysine coated plates. After the cells were cultured in a CO2 incubator for 48 hours according to a conventional method, cytosine-1-β-D(+)-arabinofuranoside (Ara-C) (10 μM) was added thereto, and the cell was continued to culture. The following experiments were conducted with the cells of 7 to 14 days old from the start day of the cultivation, the cells having completed neurite extension sufficiently.

cerebellar granule cells [3] = test: Inhibition of low potassium medium-induced death of cerebellar granule cells; format: cell-based, rats; settings: compound 10 μM; low potassium medium (5 mM KCl); after 18 hours
Experimental: as §2
It is known that neuronal cells undergo cell death when they are cultured in a medium of low potassium (Proc. Natl. Acad. Sci. U.S.A., volume 90, p 10989, 1993). […] When the test compound 1 (10 μM), the test compound 10 (10 μM), or the test compound 15 (10 μM)coexisted, 50%, 80%, and 85% of cells were respectively alive on an observation made similarly after 18 hours.

Hela 3S cells = test: Anti-cell death effect on Hela 3S cells cultured in Krebs Ringer Buffer; format: cell-based, human; settings: compound 10 μM
Experimental: Hela 3S cells (culture medium: DMEM containing 10% fetal bovine serum), a cell line derived from human cervical cancer, were seeded into multi 48 well plates and cultured in a CO2 incubator according to conventional procedures. Confirming the subconfluency of a cell culture, the medium was replaced with Krebs Ringer Buffer (120 mM NaCl, […], 1 mM KH2PO4, […], 20 mM HEPES, pH 7.4, 2.57 g/L glucose, 0.05 g/L Phenol Red) and washed three times with the same buffer and cultivation continued in the same buffer. […] When the test compound 1 (10 μM) or the test compound 15 (10 μM) was added in the present culture system and cultivation continued similarly, the proportion of normal cells increased 59% or 77% respectively, and the proportion of necrosis-like cells decreased (1% or 0%, respectively), indicating the anti-cell death effects.

Row | SMILES | MEC (Minimum effective concentration for more than 95% of inhibition of cell death) [1] [µM] | further results
1 | c1ccc(-n2cc(-c3c[nH]c4ccccc34)c(-c3c[nH]c4ccccc34)c2)cc1 [Compound 17] | 0.3 | 
2 | COc1ccc2c(c1)c(-c1cn(C)cc1-c1cn(C)c3ccc(OC)cc13)cn2C [Compound 14] | 1 | 
3 | Cc1[nH]c2ccccc2c1-c1cn(C)cc1-c1c(C)[nH]c2ccccc12 [Compound 11] | 0.1 | 
4 | Cn1cc(-c2c[nH]c3ccccc23)c(-c2cn(CCCN)c3ccccc23)c1 [Compound 4] | 0.3 | 
5 | Cc1ccc2c(c1)c(-c1cn(C)cc1-c1cn(CCCN)c3ccc(C)cc13)cn2C [Compound 16] | 0.1 | inhibition of cell death (undifferentiated POGC): complete inhibition of cell death; survival of the cells (undifferentiated POGC): more than 95%
6 | Cn1cc(-c2c[nH]c3ccccc23)c(-c2cn(C)c3ccccc23)c1 [Compound 8] | 0.3 | 
7 | Cc1ccc2[nH]cc(-c3cn(C)cc3-c3cn(C(=O)OC(C)(C)C)c4ccc(C)cc34)c2c1 [Compound 22] | 0.3 | 
8 | Cn1cc(-c2c[nH]c3ccccc23)c(-c2c[nH]c3ccccc23)c1 [Compound 1] | 0.3 | inhibition of hemolysis (erythrocytes): almost complete inhibition of hemolysis; cells alive (cerebellar granule cells [2]): more than 80%; cells alive (cerebellar granule cells [3]): 50%; proportion of necrosis-like cells (Hela 3S cells; after 5 hours (11% without compound)): 1%; proportion of normal cells (Hela 3S cells; after 5 hours (42% normal without compound)): 59%
9 | COc1ccc2[nH]cc(-c3cn(C)cc3-c3c[nH]c4ccc(OC)cc34)c2c1 [Compound 13] | 0.3 | 
10 | CN(C)CCCn1cc(-c2cn(C)cc2-c2cn(CCCN(C)C)c3ccccc23)c2ccccc21 [Compound 7] | 1 | 
11 | Cn1cc(-c2c[nH]c3ccc(F)cc23)c(-c2c[nH]c3ccc(F)cc23)c1 [Compound 12] | 1 | 
12 | Cn1cc(-c2c[nH]c3ccccc23)c(-c2cn(C(=O)OC(C)(C)C)c3ccccc23)c1 [Compound 2] | 0.3 | 
13 | Cc1cccc2c(-c3cn(C)cc3-c3c[nH]c4c(C)cccc34)c[nH]c12 [Compound 10] | 0.03 | inhibition of hemolysis (erythrocytes): almost complete inhibition of hemolysis; cells alive (cerebellar granule cells [2]): > 95%; cells alive (cerebellar granule cells [3]): 80%
14 | Cc1ccc2c(c1)c(-c1cn(C)cc1-c1cn(C(=O)OC(C)(C)C)c3ccc(C)cc13)cn2C(=O)OC(C)(C)C [Compound 23] | 10 | 
15 | Cc1ccc2[nH]cc(-c3cn(C)cc3-c3cn(C)c4ccc(C)cc34)c2c1 [Compound 24, 3-(1,5-dimethyl-1H-indol-3-yl)-4-(5-methyl-1H-indol-3-yl)-1-methylpyrrole] | 0.1 | 
16 | Cn1cc(-c2cn(C(=O)OC(C)(C)C)c3ccccc23)c(-c2cn(C(=O)OC(C)(C)C)c3ccccc23)c1 [Compound 3] | 10 | 
17 | Cn1cc(-c2cn(C)c3ccccc23)c(-c2cn(C)c3ccccc23)c1 [Compound 9] | 0.3 | 
18 | CN(C)CCCn1cc(-c2cn(C)cc2-c2c[nH]c3ccccc23)c2ccccc21 [Compound 6] | 0.3 | 
19 | Cn1cc(-c2cn(CCCN)c3ccccc23)c(-c2cn(CCCN)c3ccccc23)c1 [Compound 5] | 0.1 | 
20 | c1ccc(Cn2cc(-c3c[nH]c4ccccc34)c(-c3c[nH]c4ccccc34)c2)cc1 [Compound 18] | 0.3 | 
